The values below come from patent publication US4738971A, “N-aryl-1,2-dihydro-4-substituted-1-alkyl-2-oxo-quinoline-3-carboxamides” (priority 1981, dated 1988).

The test system of experiment [1] is carrageenan-induced edema. Description: carrageenan edema test in rats. Type of experiment: in vivo, rat (female Sprague-Dawley). Conditions: Rattus norvegicus, po; 80 mg/kg p.o., 30 min before carrageenan; edema weight 3 h after, vs control; preliminary; read-out: Potentiation of the carrageenan edema, %. An excerpt: Another test, in which the effect of a drug corresponds to the effects obtained in the tests mentioned above, and which can therefore also be used, is the well-established carrageenan edema test in rats (5). Comparative evaluation of compounds of the present invention in the three tests mentioned has shown that compounds which increase the extent of the delayed hypersensitivity reaction in the pertussis vaccine pleurisy test and in the adjuvant arthritis test also increase the extent of carrageenan-induced edema in the carrageenan edema test, thus providing a further tool for the determination of enhancement of cell-mediated immunity.
This example illustrates the effect of the compounds of the general formula I in the carrageenan edema test in rats.
A modification of a method described in (5) was used. Female Sprague-Dawleyrats weighing 110-120 g was used. At least 10 animals were used in each experimental group. Foot edema was induced by injecting carrageenan in 0.9% NaCl into the plantar surface of the right hind paw of the rats.
The substances suspended in aqueous methocel solution 10 ml/kg were administered intragastrically 30 minutes before the injection of carrageenan. The control groups were given methocel solution 10 ml/kg.
Three hours after carrageenan injection the animals were killed. The hind feet were cut off and weighed. The difference in weight of the injected right paw and the uninjected left paw was called edema weight.
The effect of the substances was assessed by the edema weight expressed in percent after comparison with the control groups.

The test system of experiment [2] is delayed hypersensitivity reaction (pertussis vaccine pleurisy). Put plainly: pertussis vaccine pleurisy test in rats. Type of experiment: in vivo, rat (male Sprague-Dawley). The settings on record: 10 mg/kg p.o.; for change in vivo at 10 mg/kg: Rattus norvegicus, po, 48 h, once daily day 10 to day 13, vs control, preliminary, read-out: Enhancement of the delayed hypersensitivity reaction assessed by the exudate vol. From the text:
A useful test for the evaluation of the effect of chemical compounds on the immune system is the pertussis vaccine pleurisy test in rats. Compounds which enhance the response in this delayed hypersensitivity reaction are considered to stimulate cell-mediated immunity (4).
This example illustrates the effect of the compounds of the general formula I in the pertussis vaccine pleurisy test.
Pertussis vaccine pleurisy is a useful test for the evaluation of the effect of chemical compounds on the immune system. Compounds which enhance the response in this delayed hypersensitivity reaction are considered to stimulate cell-mediated immunity.
A modification of a method described in (4) was used. Male Sprague-Dawley rats weighing 250-275 g were used. At least ten animals were used in each group.
Equal volumes of Freund's incomplete adjuvant and a suspension of heat killed Bordetella pertussis organisms were mixed. To sensitize animals, day 0, 0.2 ml of a mixture containing 0.036×10^10 organisms/ml was injected into the dorsal surface of one hind paw and one forepaw.
The animals were challenged on day 12 with 0.1 ml of a mixture containing 0.25×10^10 organisms/ml that was injected intrapleurally. 48 hours after challenge, day 14, the volume of the exudate in the pleural cavity was measured.
The substances suspended in aqueous methocel solution 10 ml/kg were given intragastrically once daily from day 10 to day 13. The control groups were given methocel solution 10 ml/kg.
The effect of the substances was assessed by the exudate volume expressed in percent after comparison with the control groups.

Regarding `O=C(Nc1ccccc1)c1c(O)c2ccccc2n(-c2ccccc2)c1=O` [1:3, N-1-diphenyl-1,2-dihydro-4-hydroxy-2-oxo-quinoline-3-carboxamide], the change in vivo at 80 mg/kg in experiment [1] came out at 41%.

As for `Cn1c(=O)c(C(=O)Nc2ccc(O)cc2)c(O)c2ccccc21` [1:13, N-/4-hydroxyphenyl/-1,2-dihydro-4-hydroxy-1-methyl-2-oxo-quinoline-3-carboxamide], the “significant enhancing effect in the pertussis vaccine pleurisy test” value in experiment [2] is given as “significant enhancing effect”.

Consider `CC(C)Cn1c(=O)c(C(=O)Nc2ccccc2)c(O)c2ccccc21` [1:15, N-phenyl-1,2-dihydro-4-hydroxy-1-isobutyl-2-oxo-quinoline-3-carboxamide], for which the change in vivo at 80 mg/kg in experiment [1] was 30%.

For `Cn1c(=O)c(C(=O)Nc2ccccc2)c(O)c2ccc(Cl)cc21` [1:17, N-phenyl-7-chloro-1,2-dihydro-4-hydroxy-1-methyl-2-oxo-quinoline-3-carboxamide], the change in vivo at 80 mg/kg in experiment [1] is 43%.

In the case of `Cn1c(=O)c(C(=O)Nc2ccccc2)c(O)c2cc(Cl)ccc21` [1:18, N-phenyl-6-chloro-1,2-dihydro-4-hydroxy-1-methyl-2-oxo-quinoline-3-carboxamide], the change in vivo at 80 mg/kg in experiment [1] turned out to be 36%.

With `CNc1ccc(NC(=O)c2c(O)c3ccccc3n(C)c2=O)cc1` [1:21, N-/4-methylaminophenyl/-1,2-dihydro-4-hydroxy-1-methyl-2-oxo-quinoline-3-carboxamide], the change in vivo at 80 mg/kg in experiment [1] was determined as 22%.

`CCN(CC)c1ccc(NC(=O)c2c(O)c3ccccc3n(C)c2=O)cc1` [1:23, N-/4-diethylaminophenyl/-1,2-dihydro-4-hydroxy-1-methyl-2-oxo-quinoline-3-carboxamide]: the change in vivo at 80 mg/kg in experiment [1] turned out to be 29%.

Turning to `Cc1ccc(-n2c(=O)c(C(=O)Nc3ccccc3)c(O)c3ccccc32)cc1` [1:50, N-phenyl-1,2-dihydro-4-hydroxy-1-(4-methylphenyl)-2-oxo-quinoline-3-carboxamide], in experiment [2], the change in vivo at 10 mg/kg turned out to be 46%.

Regarding `Cc1cc(NC(=O)c2c(O)c3ccccc3n(C)c2=O)sn1` [7:28, N-(3-methyl-5-isothiazolyl)-1,2-dihydro-4-hydroxy-1-methyl-2-oxo-quinoline-3-carboxamide], the change in vivo at 10 mg/kg in experiment [2] turned out to be 61%.

On to `CN(C(=O)c1c(N)c2ccccc2n(C)c1=O)c1ccccc1` [10:5, N-methyl-N-phenyl-4-amino-1,2-dihydro-1-methyl-2-oxo-quinoline-3-carboxamide], for which the “significant enhancing effect in the pertussis vaccine pleurisy test” value in experiment [2] is given as “significant enhancing effect”.

Take `CNc1c(C(=O)N(C)c2ccccc2)c(=O)n(C)c2ccccc12` [10:6, N-methyl-N-phenyl-1,2-dihydro-1-methyl-4-methylamino-2-oxo-quinoline-3-carboxamide]: the “significant enhancing effect in the pertussis vaccine pleurisy test” value in experiment [2] was “significant enhancing effect”.

With `COc1ccc(N(C)C(=O)c2c(N)c3ccccc3n(C)c2=O)cc1` [10:12, N-(4-methoxyphenyl)-N-methyl-4-amino-1,2-dihydro-1-methyl-2-oxo-quinoline-2-carboxamide], in experiment [2], the “significant enhancing effect in the pertussis vaccine pleurisy test” value is given as “significant enhancing effect”.

With `CN(C(=O)c1c(N)c2ccccc2n(C)c1=O)c1ccc(Cl)cc1` [10:13, N-(4-chlorophenyl)-N-methyl-4-amino-1,2-dihydro-1-methyl-2-oxo-quinoline-3-carboxamide], the “significant enhancing effect in the pertussis vaccine pleurisy test” value in experiment [2] is reported as “significant enhancing effect”.

On to `CN(C(=O)c1c(N)c2ccccc2n(C)c1=O)c1nccs1` [10:17, N-methyl-N-(2-thiazolyl)-4-amino-1,2-dihydro-1-methyl-2-oxo-quinoline-3-carboxamide], for which the “significant enhancing effect in the pertussis vaccine pleurisy test” value in experiment [2] was “significant enhancing effect”.

Take `Nc1c(C(=O)Nc2ccccc2)c(=O)n2c3c(cccc13)CC2` [10:20, N-phenyl-4-amino-1,2-dihydro-1,8-ethylene-2-oxo-quinoline-3-carboxamide]: the “significant enhancing effect in the pertussis vaccine pleurisy test” value in experiment [2] was “significant enhancing effect”.

As for `CN(C)c1ccc(NC(=O)c2c(O)c3cccc4c3n(c2=O)CCC4)cc1` [13:7, N-(4-dimethylaminophenyl)-1,2-dihydro-4-hydroxy-2-oxo-1,8-trimethylene-quinoline-3-carboxamide], the change in vivo at 10 mg/kg in experiment [2] was 21%.

As to `O=C(Nc1cnccn1)c1c(O)c2cccc3c2n(c1=O)CCC3` [14:17, N-pyrazinyl-1,2-dihydro-4-hydroxy-2-oxo-1,8-trimethylene-quinoline-3-carboxamide], the change in vivo at 10 mg/kg in experiment [2] was 27%.

Turning to `CN(C(=O)c1c(O)c2cccc3c2n(c1=O)CCC3)c1ccccc1` [19:1, N-methyl-N-phenyl-1,2-dihydro-4-hydroxy-2-oxo-1,8-trimethylene-quinoline-3-carboxamide], in experiment [2], the “significant enhancing effect in the pertussis vaccine pleurisy test” value is “significant enhancing effect”.

As for `CN(C(=O)c1c(O)c2cccc3c2n(c1=O)CCC3)c1ccc(F)cc1` [19:2, N-(4-fluorophenyl)-N-methyl-1,2-dihydro-hydroxy-2-oxo-1,8-trimethylene-quinoline-3-carboxamide], in experiment [2], the “significant enhancing effect in the pertussis vaccine pleurisy test” value is given as “significant enhancing effect”.

For the molecule `C=CCn1c(=O)c(C(=O)N(C)c2ccccc2)c(O)c2ccccc21` [20:1, N-methyl-N-phenyl-1,2-dihydro-1-allyl-4-hydroxy-2-oxo-quinoline-3-carboxamide], the “significant enhancing effect in the pertussis vaccine pleurisy test” value in experiment [2] was “significant enhancing effect”.

As to `CN(C(=O)c1c(O)c2ccc(Cl)cc2n(C)c1=O)c1ccccc1` [20:2, N-methyl-N-phenyl-7-chloro-1,2-dihydro-4-hydroxy-1-methyl-2-oxo-quinoline-3-carboxamide], the “significant enhancing effect in the pertussis vaccine pleurisy test” value in experiment [2] is given as “significant enhancing effect”.

On to `CN(C)c1ccc2c(c1)c(O)c(C(=O)N(C)c1ccccc1)c(=O)n2C` [20:3, N-methyl-N-phenyl-1,2-dihydro-6-dimethylamino-4-hydroxy-1-methyl-2-oxo-quinoline-3-carboxamide], for which the “significant enhancing effect in the pertussis vaccine pleurisy test” value in experiment [2] is recorded as “significant enhancing effect”.

For `COc1ccc2c(c1)c(O)c(C(=O)N(C)c1ccc(Cl)cc1)c(=O)n2C` [20:4, N-(4-chloro-phenyl)-N-methyl-1,2-dihydro-4-hydroxy-6-methoxy-1-methyl-2-oxo-quinoline-3-carboxamide], the “significant enhancing effect in the pertussis vaccine pleurisy test” value in experiment [2] was “significant enhancing effect”.

With `CCN(CC)c1ccc(N(C)C(=O)c2c(O)c3ccccc3n(C)c2=O)cc1` [20:20, N-methyl-N-/4-diethylaminophenyl/-1,2-dihydro-4-hydroxy-1-methyl-2-oxo-quinoline-3-carboxamide], in experiment [2], the “significant enhancing effect in the pertussis vaccine pleurisy test” value is “significant enhancing effect”.

Turning to `CN(C(=O)c1c(O)c2ccccc2n(C)c1=O)c1ccc(N2CCCC2)cc1` [20:21, N-methyl-N-/4-pyrrolidinophenyl/-1,2-dihydro-4-hydroxy-1-methyl-2-oxo-quinoline-3-carboxamide], in experiment [2], the “significant enhancing effect in the pertussis vaccine pleurisy test” value is listed as “significant enhancing effect”.

Consider `COCCN(C(=O)c1c(O)c2ccccc2n(C)c1=O)c1cnccn1` [20:54, N-(2-methoxy-ethyl)-N-pyrazinyl-1,2-dihydro-4-hydroxy-1-methyl-2-oxo-quinoline-3-carboxamide], for which the “significant enhancing effect in the pertussis vaccine pleurisy test” value in experiment [2] is listed as “significant enhancing effect”.

With `CN(C(=O)c1c(O)c2ccccc2n(C)c1=O)c1ncc[nH]1` [20:74, N-(2-imidazolyl)-N-methyl-1,2-dihydro-4-hydroxy-1-methyl-2-oxo-quinoline-3-carboxamide], the “significant enhancing effect in the pertussis vaccine pleurisy test” value in experiment [2] is reported as “significant enhancing effect”.

As to `Cc1cc(N(C)C(=O)c2c(O)c3ccccc3n(C)c2=O)sn1` [20:78, N-methyl-N-(3-methyl-5-isothiazolyl)-1,2-dihydro-4-hydroxy-1-methyl-2-oxo-quinoline-3-carboxamide], in experiment [2], the “significant enhancing effect in the pertussis vaccine pleurisy test” value is “significant enhancing effect”.

As to `CN(C(=O)c1c(O)c2ccccc2n(C)c1=O)c1ccc(C(=O)O)cc1` [21:13, N-(4-carboxyphenyl)-N-methyl-1,2-dihydro-4-hydroxy-1-methyl-2-oxo-quinoline-3-carboxamide], the “significant enhancing effect in the pertussis vaccine pleurisy test” value in experiment [2] was “significant enhancing effect”.
